The values that follow come from ChEMBL document CHEMBL6071177, “Medium-Ring Keto Bislactams with Antischistosomal Activity” (J Med Chem, 2024).

Molecules are shown by their SMILES. Converted amounts (≈) assume the structure as drawn.

Data set [1] can be described thus: Solubility of compound in 0.01 M HCl at pH 2.0 by nephelometry. Format: physicochemical.
The nature of data set [2]: Lipophilicity, logD of compound at pH 7.4 by HPLC analysis. The conditions noted are these: buffer. Format: physicochemical.
Data set [3] has as its system Schistosoma mansoni. Briefly: Anti-schistosomal activity against newly transformed Schistosoma mansoni assessed as parasite viability at 10 uM measured after 3 days relative to control. Format: functional. The conditions noted are these: time 3 day.
Data set [4] can be described thus: Cytotoxicity against rat L6 cells. The class given is toxicity, cell-based.
Data set [5] is described as follows: Solubility of compound in phosphate buffer at pH 6.5 by nephelometry. The class given is physicochemical.
Data set [6] relates to Schistosoma mansoni. In words: Anti-schistosomal activity against adult Schistosoma mansoni assessed as parasite viability at 10 uM measured after 3 days relative to control. The conditions noted are these: time 3 day. The class given is functional.
Data set [7] can be described thus: Intrinsic clearance in mouse liver microsomes. On the technique in general: Microsomes from liver hold many membrane-bound enzymes, among them those of drug oxidation.
Data set [8] can be described thus: Intrinsic clearance in human liver microsomes.

With `O=C1CCN2C(=O)c3ccccc3C2C(=O)Nc2cc(F)ccc21` (centres undefined), the solubility (kinetic) in data set [1] and in data set [5] was 160 µM (≈ 51.9 µg/mL) each time. Moreover, the logD – broadly, lipophilicity at a set pH, counting ionised and neutral species – in data set [2] stood at 1.4. Also, the Activity in data set [3] is 15%; in data set [6], 39%. Moreover, the IC50 (commonly the midpoint of a concentration-inhibition curve) in data set [4] is over 300 µM.

Take `CC12C(=O)Nc3ccccc3C(=O)CCN1C(=O)c1ccccc12` (centres undefined): the CLH in data set [7] is 136 µL/min/mg; in data set [8] it was 34 µL/min/mg. Besides, the solubility (kinetic) in data set [1] and in data set [5] was 160 µM (≈ 51.3 µg/mL) in each case. In data set [2], this compound registered a logD of 1.7. The Activity was found to be 25% in data set [3] and 35% in data set [6]. Further, the IC50 in data set [4] is over 300 µM.

On to `O=C1CCN2C(C(=O)Nc3ccccc31)c1ccccc1S2(=O)=O` (centres undefined), for which the solubility (kinetic) (as a rule, the concentration staying in solution when a stock, usually in DMSO, is diluted into the medium) in data set [1] was 80 µM (≈ 27.4 µg/mL); in data set [5] it was 160 µM (≈ 54.8 µg/mL). In addition, the logD in data set [2] was determined as 1.7. Further, the Activity in data set [3] worked out at 27%; in data set [6] it was 44%. Also, the midpoint of inhibition in data set [4], the IC50, lay at 130 µM.

As for `O=C1CCn2c(nc3ccccc3c2=O)C(=O)Nc2ccccc21`, the CLH in data set [7] worked out at 38.2 µL/min/mg; in data set [8], 21.7 µL/min/mg. Moreover, the kinetic solubility in data set [1] and in data set [5] was over 320 µM in each case. In data set [2], the logD amounted to 1.8. In addition, the results for the Activity in data set [3] and in data set [6] were 31% and 20%, respectively. In addition, in data set [4], 52 µM corresponded to half-maximal inhibition (IC50).

In the case of `CO/N=C1/CCN2C(=O)c3ccccc3C2C(=O)Nc2ccccc21` (centres undefined), the CLH in data set [7] was determined as 80.3 µL/min/mg; in data set [8], 13.2 µL/min/mg. The solubility (kinetic) in data set [1] and in data set [5] was over 320 µM each time. Besides, the logD in data set [2] stood at 1.6. Moreover, the figures for the Activity in data set [3] and in data set [6] were 33% and 41%, respectively. Moreover, the IC50 in data set [4] is over 300 µM.

`O=C1CCN2C(=O)CCC2C(=O)Nc2ccccc21` (centres undefined): the CLH in data set [7] was found to be 35 µL/min/mg; in data set [8], 17 µL/min/mg. The solubility (kinetic) in data set [1] is 160 µM (≈ 41.3 µg/mL); in data set [5] it was over 320 µM. In data set [2], this compound registered a logD of under 0. Further, the Activity in data set [3] was 13%; in data set [6], 31%. This compound had an IC50 in data set [4] of over 390 µM.

As to `O=C1CCN2C(=O)c3cc(Cl)c(Cl)cc3C2C(=O)Nc2ccccc21` (centres undefined), the kinetic solubility in data set [1] is 80 µM (≈ 30 µg/mL); in data set [5], 160 µM (≈ 60 µg/mL). The compound also showed a logD in data set [2] of 2.4. Further, the Activity in data set [3] is given as 31%; in data set [6], 40%. In data set [4], this compound displayed a half-inhibitory concentration (IC50) of 190 µM.

`O=C1c2ccccc2C23C(=O)Nc4ccccc4C2(O)CCN13` (centres undefined): the CLH in data set [7] and in data set [8] was under 7 µL/min/mg in each case. Besides, the solubility (kinetic) in data set [1] and in data set [5] was 40 µM (≈ 12.3 µg/mL) throughout. In addition, the logD in data set [2] stood at 0.9. For the same compound, the results for the Activity in data set [3] and in data set [6] were 18% and 48%, respectively. In data set [4], this compound had an IC50 of over 330 µM.

For the compound `O=C1CCN2C(=O)[C@H]3CCCC[C@H]3C2C(=O)Nc2ccccc21` (some centres undefined), the CLH in data set [7] is 43.7 µL/min/mg; in data set [8], 22.3 µL/min/mg. In addition, the solubility (kinetic) in data set [1] and in data set [5] was over 320 µM in each case. Further, the logD in data set [2] turned out to be 1.4. For the same compound, the Activity came to 50% in data set [3] and 25% in data set [6]. In data set [4], this compound registered an IC50 of 220 µM.

As to `O=C1C[C@@H](CO)N2C(=O)c3ccccc3C2C(=O)Nc2ccccc21` (some centres undefined), the CLH is 61.6 µL/min/mg in data set [7] and 19.6 µL/min/mg in data set [8]. The kinetic solubility in data set [1] and in data set [5] was 80 µM (≈ 26.9 µg/mL) throughout. In data set [2], this compound gave a logD of 0.8. For the same compound, the Activity in data set [3] stood at 38%; in data set [6] it was 47%. In addition, in data set [4], inhibition was half-maximal at 230 µM (IC50).

For the compound `O=C1CCN2C(=O)c3c(F)c(F)c(F)c(F)c3C2C(=O)Nc2ccccc21` (centres undefined), the solubility (kinetic) in data set [1] and in data set [5] was 160 µM (≈ 60.5 µg/mL) throughout. In data set [2], this compound yielded a logD of 2. Besides, the Activity turned out to be 36% in data set [3] and 30% in data set [6]. Besides, half-maximal inhibition in data set [4] (IC50) was put at 98 µM.

With `O=C1Nc2ccccc2C2(O)CCN3C12c1ccccc1S3(=O)=O` (centres undefined), the CLH is 11.6 µL/min/mg in data set [7] and 4.6 µL/min/mg in data set [8]. The figures for the solubility (kinetic) in data set [1] and in data set [5] were 80 µM (≈ 27.4 µg/mL) and over 160 µM, respectively. The logD in data set [2] was 1. Further, the Activity turned out to be 47% in data set [3] and 61% in data set [6]. The IC50 in data set [4] was over 290 µM.

With `COC1CCN2C(=O)c3ccccc3C2C(=O)Nc2ccccc21` (centres undefined), the CLH in data set [7] came to 90.5 µL/min/mg; in data set [8], 23.2 µL/min/mg. Further, the solubility (kinetic) came to 80 µM (≈ 25.8 µg/mL) in data set [1] and 160 µM (≈ 51.6 µg/mL) in data set [5]. Further, in data set [2], the logD came out at 1.4. Also, the Activity in data set [3] worked out at 25%; in data set [6], 31%. Further, the IC50 in data set [4] was over 310 µM.

On to `O=c1c2c([nH]c3ccccc13)C1c3ccccc3S(=O)(=O)N1C2` (centres undefined), for which the values for the CLH in data set [7] and in data set [8] were 45.8 µL/min/mg and 11 µL/min/mg, respectively. The kinetic solubility in data set [1] and in data set [5] was 40 µM (≈ 13 µg/mL) throughout. The same compound came in with a logD in data set [2] of 2. For the same compound, the Activity in data set [3] is 22%; in data set [6] it was 47%. 200 µM corresponded to half-maximal inhibition in data set [4] (IC50).

Regarding `COC(=O)[C@@H]1CC(=O)c2ccccc2NC(=O)C2c3ccccc3C(=O)N21` (some centres undefined), the CLH in data set [7] was found to be 102 µL/min/mg; in data set [8] it was 55.5 µL/min/mg. Moreover, the results for the solubility (kinetic) in data set [1] and in data set [5] were 80 µM (≈ 29.1 µg/mL) and 160 µM (≈ 58.3 µg/mL), respectively. For the same compound, in data set [2], the logD came to 1.7. The Activity is reported as 50% in data set [3] and 27% in data set [6]. In data set [4], the IC50 is over 270 µM.

Turning to `O=C1CCN2C(=O)c3cc(F)c(F)cc3C2C(=O)Nc2ccccc21` (centres undefined), the results for the kinetic solubility in data set [1] and in data set [5] were over 320 µM and 160 µM (≈ 54.8 µg/mL), respectively. The compound also gave a logD in data set [2] of 1.7. In addition, the Activity in data set [3] was 37%; in data set [6], 34%. In data set [4], this compound had an IC50 of over 290 µM.

Turning to `CN1C(=O)C2c3ccccc3C(=O)N2CCC(=O)c2ccccc21` (centres undefined), the figures for the CLH in data set [7] and in data set [8] were 174 µL/min/mg and 71 µL/min/mg, respectively. Moreover, the solubility (kinetic) in data set [1] and in data set [5] was over 320 µM throughout. In data set [2], this compound had a logD of 1.9. Further, the results for the Activity in data set [3] and in data set [6] were 23% and 39%, respectively. In addition, the IC50 in data set [4] is over 300 µM.

In the case of `O=C1Nc2ccccc2CCCN2C(=O)c3ccccc3C12` (centres undefined), the CLH in data set [7] was 100 µL/min/mg; in data set [8], 35.7 µL/min/mg. The solubility (kinetic) is 160 µM (≈ 46.8 µg/mL) in data set [1] and over 320 µM in data set [5]. Besides, the logD in data set [2] came to 1.5. For the same compound, the values for the Activity in data set [3] and in data set [6] were 48% and 31%, respectively. Besides, the IC50 in data set [4] is over 340 µM.

As for `O=C(C1CCCCC1)N1CC(=O)N2CCc3ccccc3C2C1` (centres undefined) [PRAZIQUANTEL], the kinetic solubility in data set [1] and in data set [5] was over 320 µM each time. Moreover, in data set [2], the logD turned out to be 3. Also, the Activity was found to be 78% in data set [3] and 100% in data set [6].
